Assay results taken from PubChem BioAssay (NCI).
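Five concentrations, 48 hours, 96-well plates. TGI denotes the concentration required for complete inhibition of growth.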

Assays:
Assay in all cases: NCI anticancer screen, dose series, 48 h
[1] = system: HOP-18 NSCLC
[2] = system: OVCAR-5 ovarian
[3] = system: SF-539 CNS
[4] = system: OVCAR-3 ovarian
[5] = system: HCC-2998 colon
[6] = system: A549 NSCLC
[7] = system: M19-MEL melanoma
[8] = system: SK-MEL-28 melanoma
[9] = system: UACC-62 melanoma
[10] = system: KM12 colon
[11] = system: A498 renal
[12] = system: OVCAR-8 ovarian
[13] = system: ACHN renal
[14] = system: SNB-75 CNS
[15] = system: RXF 393 renal
[16] = system: M14 melanoma
[17] = system: SW-620 colon
[18] = system: NCI-H23 lung
[19] = system: IGROV1 ovarian
[20] = system: NCI-H460 lung
[21] = system: SK-OV-3 ovarian
[22] = system: SF-295 CNS
[23] = system: MALME-3M melanoma
[24] = system: COLO 205 colon
[25] = system: SK-MEL-2 melanoma
[26] = system: HCT-15 colon
[27] = system: DMS 114 small cell lung
[28] = system: SN12C renal
[29] = system: OVCAR-4 ovarian
[30] = system: KM20L2 colon
[31] = system: HOP-62 NSCLC
[32] = system: CAKI-1 renal
[33] = system: RXF-631 renal
[34] = system: SR leukemia
[35] = system: DLD-1 colon
[36] = system: SF-268 CNS
[37] = system: RPMI-8226 leukemia
[38] = system: SNB-19 CNS
[39] = system: EKVX NSCLC
[40] = system: HCT-116 colon
[41] = system: U251 CNS
[42] = system: DMS 273 small cell lung
[43] = system: SNB-78 CNS
[44] = system: NCI-H226 lung
[45] = system: UO-31 renal
[46] = system: UACC-257 melanoma
[47] = system: HOP-92 NSCLC
[48] = system: 786-0 renal
[49] = system: LXFL 529 NSCLC
[50] = system: HT29 colon
[51] = system: NCI-H522 lung
[52] = system: XF 498 CNS
[53] = system: SK-MEL-5 melanoma
[54] = system: CCRF-CEM leukemia
[55] = system: TK-10 renal
[56] = system: LOX IMVI melanoma
[57] = system: MOLT-4 leukemia
[58] = system: K-562 leukemia
[59] = system: HL-60(TB) leukemia

C/C(=N/Nc1ccc([N+](=O)[O-])cc1[N+](=O)[O-])C(CC(C(=O)NCc1ccccc1)/C(C)=N\Nc1ccc([N+](=O)[O-])cc1[N+](=O)[O-])C(=O)NCc1ccccc1 (stereo not drawn)
TGI [1]: 9.48 µM
TGI [2]: 56.6 µM
TGI [3]: 14.9 µM
TGI [4]: 24.5 µM
TGI [5]: 33.9 µM
TGI [6]: 14.6 µM
TGI [7]: 23.9 µM
TGI [8]: 22.4 µM
TGI [9]: 28.4 µM
TGI [10]: 15 µM
TGI [11]: 30.5 µM
TGI [12]: 4.73 µM
TGI [13]: 17.4 µM
TGI [14]: 12.4 µM
TGI [15]: 15 µM
TGI [16]: 21.9 µM
TGI [17]: 24.4 µM
TGI [18]: 28.7 µM
TGI [19]: 31 µM
TGI [20]: 17.5 µM
TGI [21]: 29.1 µM
TGI [22]: 18.2 µM
TGI [23]: 30.8 µM
TGI [24]: 27.8 µM
TGI [25]: 23.9 µM
TGI [26]: 26 µM
TGI [27]: 23.8 µM
TGI [28]: 15.1 µM
TGI [29]: 5.59 µM
TGI [30]: 37.5 µM
TGI [31]: 13.9 µM
TGI [32]: 20.4 µM
TGI [33]: 20 µM
TGI [34]: 35.7 µM
TGI [35]: 29.4 µM
TGI [36]: 16.5 µM
TGI [37]: 44.8 µM
TGI [38]: 31 µM
TGI [39]: 32.9 µM
TGI [40]: 16.4 µM
TGI [41]: 11.1 µM
TGI [42]: 20.4 µM
TGI [43]: 31 µM
TGI [44]: 25.8 µM
TGI [45]: 14.2 µM
TGI [46]: 18 µM
TGI [47]: 7.98 µM
TGI [48]: 13.1 µM
TGI [49]: 23.6 µM
TGI [50]: 18.5 µM

COc1ccc(OC)c(N2CC(N)C2=O)c1 (stereo not drawn)
TGI [1]: > 100 µM
TGI [3]: > 100 µM
TGI [4]: > 100 µM
TGI [5]: > 100 µM
TGI [51]: > 100 µM
TGI [6]: > 100 µM
TGI [7]: > 100 µM
TGI [52]: > 100 µM
TGI [8]: > 100 µM
TGI [9]: > 100 µM
TGI [10]: > 100 µM
TGI [11]: > 100 µM
TGI [12]: > 100 µM
TGI [13]: > 100 µM
TGI [14]: > 100 µM
TGI [15]: > 100 µM
TGI [16]: > 100 µM
TGI [17]: > 100 µM
TGI [18]: > 100 µM
TGI [19]: > 100 µM
TGI [20]: > 100 µM
TGI [21]: > 100 µM
TGI [22]: > 100 µM
TGI [23]: > 100 µM
TGI [24]: > 100 µM
TGI [25]: > 100 µM
TGI [26]: > 100 µM
TGI [28]: > 100 µM
TGI [29]: > 100 µM
TGI [53]: > 100 µM
TGI [30]: > 100 µM
TGI [31]: > 100 µM
TGI [33]: > 100 µM
TGI [54]: > 100 µM
TGI [36]: > 100 µM
TGI [37]: > 100 µM
TGI [38]: > 100 µM
TGI [55]: > 100 µM
TGI [39]: > 100 µM
TGI [40]: > 100 µM
TGI [56]: > 100 µM
TGI [57]: > 100 µM
TGI [41]: > 100 µM
TGI [42]: > 100 µM
TGI [44]: > 100 µM
TGI [45]: > 100 µM
TGI [46]: > 100 µM
TGI [58]: > 100 µM
TGI [59]: > 100 µM
TGI [47]: > 100 µM
TGI [48]: > 100 µM
TGI [50]: > 100 µM

C=C(C)CCOC(c1ccccc1)(c1ccccc1)c1ccccc1
TGI [2]: > 100 µM
TGI [3]: > 100 µM
TGI [4]: > 100 µM
TGI [5]: > 100 µM
TGI [51]: 76.3 µM
TGI [6]: > 100 µM
TGI [7]: > 100 µM
TGI [52]: 90.3 µM
TGI [8]: > 100 µM
TGI [9]: > 100 µM
TGI [10]: > 100 µM
TGI [12]: > 100 µM
TGI [13]: > 100 µM
TGI [14]: > 100 µM
TGI [15]: 82.8 µM
TGI [16]: > 100 µM
TGI [17]: > 100 µM
TGI [18]: > 100 µM
TGI [19]: > 100 µM
TGI [20]: > 100 µM
TGI [21]: > 100 µM
TGI [22]: > 100 µM
TGI [23]: > 100 µM
TGI [24]: > 100 µM
TGI [26]: > 100 µM
TGI [28]: > 100 µM
TGI [29]: > 100 µM
TGI [53]: > 100 µM
TGI [30]: > 100 µM
TGI [31]: > 100 µM
TGI [32]: > 100 µM
TGI [33]: > 100 µM
TGI [54]: > 100 µM
TGI [35]: > 100 µM
TGI [36]: > 100 µM
TGI [37]: > 100 µM
TGI [38]: > 100 µM
TGI [55]: > 100 µM
TGI [40]: 76.6 µM
TGI [56]: 79.2 µM
TGI [57]: > 100 µM
TGI [41]: > 100 µM
TGI [43]: > 100 µM
TGI [44]: 97.8 µM
TGI [45]: > 100 µM
TGI [46]: 80.5 µM
TGI [58]: > 100 µM
TGI [59]: > 100 µM
TGI [47]: > 100 µM
TGI [48]: > 100 µM
TGI [49]: > 100 µM
TGI [50]: 70.6 µM

O=C(/C=C/c1ccc([N+](=O)[O-])cc1)c1ccc(NCc2nc3ccccc3[nH]2)cc1
TGI [1]: 31.3 µM
TGI [2]: 26.3 µM
TGI [3]: 8.08 µM
TGI [4]: 11.8 µM
TGI [5]: 6.38 µM
TGI [51]: 11.9 µM
TGI [7]: 15.3 µM
TGI [52]: 20.2 µM
TGI [8]: 28 µM
TGI [9]: 26 µM
TGI [10]: 3.47 µM
TGI [11]: 24.1 µM
TGI [12]: 12.9 µM
TGI [13]: 23 µM
TGI [14]: 31.5 µM
TGI [16]: 24 µM
TGI [17]: 6.19 µM
TGI [18]: 15.3 µM
TGI [19]: 18.1 µM
TGI [20]: 5.64 µM
TGI [21]: 30.1 µM
TGI [22]: 18.1 µM
TGI [23]: 28.3 µM
TGI [24]: 7.71 µM
TGI [25]: 29.7 µM
TGI [26]: 11.8 µM
TGI [27]: 7.44 µM
TGI [28]: 14.8 µM
TGI [29]: 27.8 µM
TGI [53]: 16.3 µM
TGI [30]: 15.3 µM
TGI [31]: 26.7 µM
TGI [32]: 21.2 µM
TGI [33]: 19.7 µM
TGI [54]: 6.16 µM
TGI [34]: 8.15 µM
TGI [35]: 15.7 µM
TGI [36]: 26.6 µM
TGI [38]: 14.5 µM
TGI [55]: 19.9 µM
TGI [39]: 22.2 µM
TGI [56]: 6.54 µM
TGI [57]: 10.2 µM
TGI [41]: 3.23 µM
TGI [42]: 13.6 µM
TGI [43]: 29 µM
TGI [45]: 16.3 µM
TGI [46]: 13.8 µM
TGI [58]: 7.03 µM
TGI [59]: 4.25 µM
TGI [47]: 21.8 µM
TGI [48]: 10.8 µM
TGI [49]: 8.61 µM
TGI [50]: 12.3 µM
